In paper PMC6235670, “An mTOR Signaling Modulator Suppressed Heterotopic Ossification of Fibrodysplasia Ossificans Progressiva” (Stem Cell Reports, 2018):

Tests used:
[1] = system: ATDC5/FOP-ACVR1 cells; assay: ALP assay (HTS and dose-response) in ATDC5/FOP-ACVR1; type: cell-based, mouse; conditions: same protocol as HTS (72 h)
[2] = system: FOP-iMSCs; assay: 2D chondrogenic induction of FOP-iMSCs with activin A (GAG, Alcian blue); type: cell-based, human; conditions: activin A, 7 days
[3] = system: ATDC5/FOP-ACVR1 cells; assay: AlamarBlue viability assay in ATDC5/FOP-ACVR1; conditions: AlamarBlue, ATDC5/FOP-ACVR1, 10 μM
Procedure: Generation of ATDC5 stably expressing ACVR1. WT - or FOP-ACVR1 was inserted into doxycycline (Dox)- […]
(KW111/WT-ACVR1 or KW111/FOP-ACVR1). KW111/WT-ACVR1 or KW111/FOP-ACVR1 and PBaseII […]
FuGeneHD® (Promega) according to the manufacturer’s protocol, and the neomycin- resistant population (500 µg/mL) was selected. Further selection was performed by selecting a mCherry high positive population (< 5%) after six hours of Dox treatment, sorting it with fluorescent-activated cell sorting (FACS) using AriaII (BD) according to the manufacturer’s protocol, and designating it as ATDC5/WT-ACVR1 or ATDC5/FOP-ACVR1.
KW111 included PB, active transposable PB elements; TRE-mCMVP, Tetracycline Response Element and a minimal CMV promoter; rtTA, reverse tetracycline-controlled transactivator. PBaseII was an expression plasmid vector containing the PB transposase cDNA with optimized codon usage to human under the control […]
HTS campaign and follow-up screens. ATDC5/FOP-ACVR1 cells were plated in 96-well white plates (2,000 cells/well/40 µ L, Corning) in DMEM/F-12 supplemented with 5% (v/v) FBS. […]
37 °C under 5% CO2. After 3 days incubation, Alkaline Phosphatase activity (ALP) or AlamarBlue activity was measured using Amplite™ Colorimetric Alkaline Phosphatase Assay Kit (AAT Bioquest) or alamarBlue® Cell Viability Reagent (Thermo Fisher Scientific) according to the manufacturer’s protocol, respectively. T h e […]
was measured on POWERSCAN4 (DS Pharma Biomedical) or EnVision® Multilabel Reader (PerkinElmer).
Inhibitory effects of the screened compounds are given as percent inhibition, which was calculated using the following equation: (1-([Abs of compound] - [Abs of Min])/([Abs of Max] - [Abs of Min]))× 100, where [Abs of Max] and [Abs of Min] are the mean Abs of DMSO control and 1 µM DMH-1, respectively. The Z’ factor, which is widely used as a measure of the assay quality of each plate, was calculated using the following equation: Z’ factor = 1 - 3 × ([SD of Max] + [SD of Min])/([Abs of Max] - [Abs of Min]) (SI Appendix, Fig.
The S/B (signal-to-background) ratio was calculated using the following equation: ([Abs of Max]/[Abs of Min]) (SI Appendix, Fig. S3B).
Using ATDC5/FOP-ACVR1 cells, we performed a first screening (n=2; test compounds = 1 µM, Fig. […]

[4] = system: BMP signaling (BRE-Luc); assay: BRE-Luc reporter assay in FOP-iMSCs; type: cell-based, human; conditions: activin A and compounds for 16 hr
Procedure: (§1) FOP-iMSCs transiently transfected with BRE-Luc (A) or CAGA-Luc (B) with CMV-Renilla were stimulated with activin A and compounds for 16 hr (A) or 3 hr (B). […] One day after siRNA transfection, chondrogenic induction with activin A was initiated, and after 7 days the cells were harvested. […] FOP-iMSCs cultured with 10% FBS were treated with 100 nM rapamycin (Rapa) or TAK 165 (TAK) for 2 hr, and the cells were harvested. […] 1 μM TAK, 1 μM CP (CP-724714, another selective ERBB2 inhibitor), or 10 nM Rapa were applied in the experiments.

[5] = system: TGF-β signaling (CAGA-Luc); assay: CAGA-Luc reporter assay in FOP-iMSCs; type: cell-based, human; conditions: activin A and compounds for 3 hr
Procedure: as §1

[6] = system: mTOR signaling (p-S6); assay: p-S6 western blotting during chondrogenic induction of FOP-iMSCs with activin A; type: cell-based, human; conditions: 1 µM
Procedure: Western blotting. SDS- PAGE and blotting with whole-cell lysates were performed by standard procedures.
Protein bands were detected with ECL Prime Western Blotting Detection Reagent (GE Healthcare) and visualized using BIO-RAD Molecular Imager® Chemi-DocTM XRS+ with Image LabTM software (Bio-Rad).
All data (relative intensity) were corrected by β-actin.
Antibodies for western blotting and immunostaining.
N ame Company Cat. No Concentration
Human Activin RIA/ALK-2 Antibody R&D Systems) AF637 1:100
Anti-human Vimentin antibody Abcam ab16700 1:40
Collagen I Antibody Novus NB600- 1:100
Anti-rabbit IgG, HRP-linked Antibody Cell Signaling #7074 1:10000 […]
2nd Goat anti-Rabbit IgG (H+L) Secondary Antibody, Invitrogen A-11008 1:100 antibody Alexa Fluor® 488 conjugate
Goat anti-Rabbit IgG (H+L) Secondary Antibody, Invitrogen A-21428 1:500

[7] = system: mTOR signaling (p-S6); assay: p-S6 western blotting in FOP-iMSCs cultured with 10% FBS; type: cell-based, human; conditions: 100 nM, 2 hr
Procedure: time point t = 24 h from t = 0 h, and relative cell migration was expressed as the ratio of the absolute cell migrations between the experimental and control groups by using CL-Quant software (Nikon Corp.).
Quantitative PCR analysis. Total RNA was purified with RNeasy Kit (Qiagen) and treated with DNase -one Kit (Qiagen) to remove genomic DNA. Total RNA (0.3 µg) was reverse transcribed for single-stranded cDNA using random primers and Superscript III reverse transcriptase (Thermo Fisher Scientific) according to the manufacturer’s instructions. Quantitative PCR was performed with Thunderbird SYBR qPCR Mix (TOYOBO) and analyzed with the StepOne real-time PCR system (Applied Biosystems). […]
Microarray experiments. 2D chondrogenic induction was performed in FOP-iMSCs stimulated with or without 100 ng/mL Activin-A, TAK 165, CP-724714 and Lapatinib. […] Raw CEL files were imported into GeneSpring GX 12.6.1 software (Agilent Technologies), and expression values were calculated with the RMA16 algorithm. […]
Protein bands were detected with ECL Prime Western Blotting Detection Reagent (GE Healthcare) and visualized using BIO-RAD Molecular Imager® Chemi-DocTM XRS+ with Image LabTM software (Bio-Rad). […]
GAG value. The GAG content was quantified in pellets with the Blyscan Glycosaminoglycan Assay Kit (Biocolor). The DNA content was quantified using PicoGreen dsDNA Quantitation Kit (Thermo Fisher […]

[8] = system: healthy control iPSC (414C2)-derived iMSCs; assay: Wound healing assay; conditions: 10 nM rapamycin or 1 µM TAK165, 24 h
[9] = system: C57BL/6 mice; assay: Growth plate histology and normal bone µCT in compound-administered BMP-7-injected mice; conditions: 5 mg/kg i.p., 2 weeks
Procedure: MTOR s604 […]tt […]at […]
System Engineering) according to the manufacturer's instructions. […]
BMP-7-induced HO model mice. BMP -7 (2 µ g/mouse) was injected into the right gastrocnemius muscle of C57BL/6NJcl mice (6-8 weeks, male, CLEA Japan), and compounds were administered once a day, five times a week (intraperitoneal administration). Mice were analyzed 2 weeks after injection. […]
Histological analysis of growth plates chondrocytes. Knee joints were obtained from BMP-7-injected and test compounds-administrated C57BL/6NJcl mice after 2 weeks treatment and fixed, paraffin-embedded, and sectioned and stained with Safranin O. The thickness of the proliferative and hypertrophic zones of the growth plate were measured using ImageJ software on images obtained using a Keyence microscope (Keyence A merica). The proliferative zone was defined as the region with flat chondrocytes stacked in longitudinal columns, and the hypertrophic zone as the region where chondrocytes are enlarged in size and form clusters.
Normal bone µCT. The left legs of mice were obtained from BMP -7-injected and test -compounds administrated C57BL/6NJcl mice after 2 weeks treatment. The region of interest (ROI) included the femur- tibia (entire femur in addition to the part of tibia above tibia/fibular junction). […]
Tests of side effects of direct and indirect mTOR inhibitors. Related

SMILES | IC50 [1] | inhibition of glycosaminoglycan (GAG) production ([2]; 1 μM) | suppression of chondrogenic induction (GAG), dose dependence [2] | Viability (%) @10 μM [3] | BRE-Luc (BMP-specific luciferase reporter) [4] | CAGA-Luc (TGF-β-responsive luciferase reporter) [5] | p-S6 levels from 2 hr after treatment [6] | p-S6 levels (direct mTOR inhibition) [7] | Relative cell migration (wound healing assay) vs DMSO [8] | Bone Mineral Density (normal bone µCT) vs vehicle [9] | Bone volume (normal bone µCT, femur-tibia) vs vehicle [9] | Hypertrophic zone thickness of growth plate vs vehicle [9] | Proliferative zone thickness of growth plate vs vehicle [9]
CCN(CC)CCCCNc1ncc2cc(-c3c(Cl)cccc3Cl)c(NC(=O)NC(C)(C)C)nc2n1 [PD 161570] | 317 nM | potent inhibition | dose-dependent | 63% | inhibited | inhibited | significantly inhibited | – | – | – | – | – | –
CO[C@H]1C[C@@H]2CC[C@@H](C)[C@@](O)(O2)C(=O)C(=O)N2CCCC[C@H]2C(=O)O[C@H]([C@H](C)C[C@@H]2CC[C@@H](O)[C@H](OC)C2)CC(=O)[C@H](C)/C=C(\C)[C@@H](O)[C@@H](OC)C(=O)[C@H](C)C[C@H](C)/C=C/C=C/C=C/1C [rapamycin] | – | – | – | – | – | – | – | decreased | n.s. | n.s. | n.s. | n.s. | n.s.
